Laboratory results: US20060046278A1, “Methods and kits for determining metabolic stability of compounds” (Qualyst, Inc., priority 2004, published 2006)

Tests used:
CYP2D6 [1] = target: T1, CYP2D6 (Homo sapiens, UniProt P10635); conditions: 20 μM substrate; for CL rank order: degree of metabolism by rate of ROS-dependent CL production, reconstituted recombinant CYP2D6, 1 mM NADPH, 37° C.
Experimental: Stock solutions of NADPH were freshly prepared before each experiment in buffer. Test compounds were prepared as 20 mM stock solutions in DMSO and diluted to 2 mM in acetonitrile. […] Reactions were performed at 37° C. in 500 μL deep 96-well blocks. Reactions were incubated for 3 min prior to adding NADPH. Aliquots of the reaction mixture (10 μL) were removed at 0 (immediately after the addition of NADPH), 5,10, 20 and 30 min and quenched with 20 μL of acetonitrile and placed in 96-well polypropylene plates. ROS formation was quantified using a chemiluminescence reaction as described below.

CYP2D6 [2] = target: T1, CYP2D6; conditions: degree of metabolism by parent compound remaining after 10 min; 5 μM substrate, recombinant CYP2D6 microsomes, 1 mM NADPH, 37° C.
Experimental: Test compounds were prepared as 20 mM stock solutions in DMSO and diluted to 2 mM in acetonitrile. […] Unless otherwise specified, reaction mixtures consisted of 5 μM substrate, 30 pmol/mL recombinant CYP2D6 microsomes (GenTest™) and 1 mM NADPH prepared in buffer to a final volume of 750 μl. Reactions were performed at 37° C. in 1.2 mL marsh tubes. Reactions were incubated for 3 min prior to adding NADPH. Aliquots of the reaction mixture (100 μL) were removed at 0 (immediately after the addition of NADPH), 5, 10, 20 and 30 min and quenched with 200 μL of acetonitrile (containing 2.5 μM terfenadine). Samples were placed at −20° C. for 1 hr and centrifuged using a Thermo IEC Centra GP8R table top centrifuge (3,000 rpm for 10 min). The supernatant fraction was transferred to 500 μL 96-well blocks for LC-MS analysis.
LC-MS analysis was performed using a HPLC system consisting of a Shimadzu LC-10AD pump and Perkin Elmer Series 200 Autosampler coupled to an Applied Biosystems Sciex API 3000 triple-quadrapole mass spectrometer. Test compounds were separated on an Agilent ZORBAX® Bonus-RP column (30×2.1 mm, 3.5 μm particle size) maintained at 30° C. […] The column was equilibrated with 100% buffer A for 2 min between each run. The HPLC eluant was directly introduced into the mass spectrometer equipped with a Turbo Ionspray interface operated at 4500 V in the positive mode. […] Compounds were detected by single ion monitoring using the following parameters: declustering potential, 35 V; focusing potential, 200 V; exit potential, 10 V.

T1 sequence (P10635 whole entry): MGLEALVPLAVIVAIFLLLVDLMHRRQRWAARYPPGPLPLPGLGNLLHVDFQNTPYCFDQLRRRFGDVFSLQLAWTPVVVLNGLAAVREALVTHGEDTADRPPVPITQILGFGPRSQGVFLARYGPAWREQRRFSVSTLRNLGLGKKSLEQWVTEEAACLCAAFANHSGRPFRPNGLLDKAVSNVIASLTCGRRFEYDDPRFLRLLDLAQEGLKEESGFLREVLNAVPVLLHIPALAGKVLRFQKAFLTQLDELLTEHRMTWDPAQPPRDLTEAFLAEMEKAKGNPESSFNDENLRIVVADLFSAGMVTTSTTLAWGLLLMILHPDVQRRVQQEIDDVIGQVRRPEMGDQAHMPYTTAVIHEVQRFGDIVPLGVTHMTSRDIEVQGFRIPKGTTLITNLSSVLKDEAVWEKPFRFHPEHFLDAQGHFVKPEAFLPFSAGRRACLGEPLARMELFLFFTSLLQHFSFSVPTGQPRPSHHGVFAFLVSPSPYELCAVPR

Structure (SMILES) | CL rank order (CYP2D6 [1]) | LC-MS rank order (CYP2D6 [2]) | increase in the rate of CL production over background (no substrate) (CYP2D6 [1]; CYP2D6 reaction, 30 min time course)
C=CCc1ccccc1OCC(O)CNC(C)C (stereo not drawn) [alprenolol] | 3 (high (a rate of CL production above 800 Units/min)) | 3 (high (less than 20% of parent compound remaining after 10 min)) | –
COc1ccc(CCN2CCC(Nc3nc4ccccc4n3Cc3ccc(F)cc3)CC2)cc1 [astemizole] | 2 (moderate (a rate of CL production between 400 (background) and 800 CL Units/min)) | 2 (moderate (between 20 and 75% of parent compound remaining after 10 min)) | –
NC(=O)N1c2ccccc2C=Cc2ccccc21 [carbamazepine] | 1 (low (a rate of CL production equal to or below that observed in the absence of substrate (400 Units/min))) | 1 (low (more than 75% of parent compound remaining after 10 min)) | –
COc1ccc2c(c1)[C@]13CCCC[C@@H]1[C@H](C2)N(C)CC3 [dextromethorphan] | 2 (moderate (a rate of CL production between 400 (background) and 800 CL Units/min)) | 2 (moderate (between 20 and 75% of parent compound remaining after 10 min)) | approximately two-fold
COc1ccc([C@@H]2Sc3ccccc3N(CCN(C)C)C(=O)[C@@H]2OC(C)=O)cc1 [diltiazem] | 1 (low (a rate of CL production equal to or below that observed in the absence of substrate (400 Units/min))) | 1 (low (more than 75% of parent compound remaining after 10 min)) | –
CCC(C)n1ncn(-c2ccc(N3CCN(c4ccc(OCC5COC(Cn6cncn6)(c6ccc(Cl)cc6Cl)O5)cc4)CC3)cc2)c1=O (stereo not drawn) [itraconazole] | 1 (low (a rate of CL production equal to or below that observed in the absence of substrate (400 Units/min))) | 1 (low (more than 75% of parent compound remaining after 10 min)) | –
O=C(CCCN1CCC(O)(c2cccc(C(F)(F)F)c2)CC1)c1ccc(F)cc1 [trifluperidol] | 2 (moderate (a rate of CL production between 400 (background) and 800 CL Units/min)) | 1 (low (more than 75% of parent compound remaining after 10 min)) | –
